Read-outs that look alike come from different tables or passages of the source.
How the values were obtained:
C. glabrata CBS138 [1] = assay: MIC determination, C. glabrata; type: cell-based, Candida glabrata; conditions: RPMIG, 24 h, 35 °C
Description: (§1) The bacterial strains Escherichia coli ATCC25922 and Staphylococcus aureus Newman were used in this work and maintained in Lennox Broth (LB) solid medium, composed of 10 g/L tryptone, 5 g/L yeast extract, 5 g/L NaCl and 20 g/L agar. The fungal strains Candida albicans SC5134 and C. glabrata CBS138 were used in this work and maintained in YPD solid medium, composed of 20 g/L glucose, 20 g/L peptone, 10 g/L yeast extract and 15 g/L agar. The strains were isolated from human infections.
(§2) The antimicrobial activity of the complexes towards the bacterial and fungal strains was assessed by the determination of the Minimal Inhibitory Concentration (MIC) of each complex towards the indicated microbial strains, based on standard methods, and as previously described. […] Serial 1:2 dilutions of stock solutions were prepared for each complex in Mueller–Hinton (MH) broth (Fluka Analytical) or RPMI-1640 medium (Sigma) supplemented with 20 g/L glucose and buffered with 0.165 M morpholinepropanesulphonic acid (RPMIG) to pH 7.0. Solutions prepared with MH were used for testing bacteria, while those prepared with RPMIG were used for testing fungi. For antibacterial activity assays, the final concentrations ranged from 250 to 0.24 μg/mL (when stock solution final concentration was 10 mg/mL), 125 μg/mL to 0.12 μg/mL (when stock solution final concentration was 5 mg/mL) and 62.5 to 0.06 μg/mL (when stock solution final concentration was 2.5 mg/mL). For antifungal assays, the final concentrations ranged from 125 μg/mL to 0.12 μg/mL (when stock solution final concentration was 10 mg/mL), 62.5 to 0.06 μg/mL (when stock solution final concentration was 5 mg/mL) and 31.25 to 0.03 μg/mL (when stock solution final concentration was 2.5 mg/mL). Then, 100 μL aliquots of adequately diluted bacterial suspensions of S. aureus Newman or E. coli ATCC 25922 were mixed with the MH serially diluted complexes aliquots to obtain 5 × 10^5 CFU/mL. In the case of fungi, cultures were diluted to obtain a final optical density of 0.025, measured at 530 nm (OD530). Bacterial suspensions were prepared from cultures grown for 5 h in MH broth at 37 °C and 250 rev·min^−1 and adequately diluted with fresh MH medium, while fungal suspensions were prepared from overnight cultures grown in YPD broth at 30 °C and 250 rev.min^−1 and diluted in buffered RPMIG. After 22 h of incubation at 37 °C (bacteria) or 24 h at 35 °C (fungi), the wells’ content was resuspended by pipetting and the OD640 (bacteria) or OD530 (fungi) were measured in a SPECTROstar Nano microplate reader (BMG Labtech).
(§3) At least three independent experiments were performed in duplicate for each complex under study. […] Positive (no complex) and negative controls (no inoculum) were performed for each experiment. The effect of 5% (V/V) DMSO on microbial growth was also assessed.

[2] = test system: A2780 ovarian cancer cells; assay: MTT cytotoxicity assay in A2780 (cisplatin sensitive) ovarian cancer cells; type: cell-based, human
Procedure: (§4) Cells were exposed to increasing concentrations of the complexes (0.01–100 μM) for 24 and/or 48 h, at 37 °C. The IC50 values were calculated from dose–response curves using the colorimetric MTT assay. […] Most complexes presented a similar cytotoxicity profile compared to Auranofin, but higher activity compared to Cisplatin, and, most importantly, were active in the Cisplatin-resistant OVCAR8 cells (Table 2).
(§5) The cytotoxic activity of the complexes was evaluated in the A2780 (cisplatin sensitive) (Sigma-Aldrich) and OVCAR8 (cisplatin resistant) (ATCC) ovarian cancer cells. Cells were grown in RPMI-1640 medium (Gibco, Thermo Fisher) supplemented with 10% fetal bovine serum (FBS) and were maintained at 37 °C in a humidified atmosphere with 5% CO2. The complexes were initially dissolved in DMSO and then in culture medium to prepare serial dilutions in the range 10^−9–10^−4 M. After 24 and/or 48 h incubation the cellular viability was measured by the colorimetric MTT assay, as previously described.

E. coli ATCC25922 [3] = assay: MIC determination, E. coli; type: cell-based, Escherichia coli; conditions: MH broth, 22 h, 37 °C
Description: as §1, §2, §3

Huh7 cells = assay: Cell viability (cell confluency, Alamar Blue) of P. berghei-infected Huh7 cells; type: cell-based; conditions: 5 µM, in words
Procedure: (§6) The in vitro liver stage activity of gold complexes was assessed against P. berghei-infected Huh7 cells, as previously described. Briefly, Huh7 cells were cultured in RPMI-1640 medium supplemented with 10% (v/v) fetal bovine serum, 1% (v/v) penicillin/streptomycin, 1% (v/v) glutamine, 1% (v/v) non-essential amino acids and 10 mM HEPES. On the day prior to infection, Huh7 cells were seeded in 96-well plates at a density of approximately 3.1 × 10^4 cell/cm^2 and incubated at 37 °C, 5% CO2. Stock solutions of the complexes were initially prepared in DMSO and serially diluted in infection medium, i.e., culture medium supplemented with gentamicin (50 µg/mL) and fungizone (0.8 µg/mL), to obtain the test concentrations. As a control, DMSO was diluted in infection medium to a percentage that equals that of the highest compound concentrations tested. These dilutions were added to the cells in triplicates and incubated for 1 h at 37 °C, 5% CO2, after which 1 × 10^4 luciferase-expressing P. berghei sporozoites were added to each well. Plates were centrifuged at 1800× g for 5 min at room temperature and incubated for the duration of the assay. At 46 h post-infection (hpi), the impact of each compound concentration on cell viability was assessed by the Alamar Blue (Invitrogen, Buckinghamshire, UK) assay, according to the manufacturer’s recommendations. Infection was next assessed by bioluminescence, employing the Firefly Luciferase Assay Kit 2.0 (Biotium, Fremont, CA, USA), according to the manufacturer’s recommendations. For IC50 determination, nonlinear regression analysis was employed to fit the normalized results of the dose–response curves, using GraphPad Prism 8 (GraphPad software, La Jolla, CA, USA).

S. aureus Newman [4] = assay: MIC determination, S. aureus; type: cell-based, Staphylococcus aureus; conditions: MH broth, 22 h, 37 °C
Description: as §1, §2, §3

C. albicans SC5134 [5] = assay: MIC determination, C. albicans; type: cell-based, Candida albicans; conditions: RPMIG, 24 h, 35 °C
Description: as §1, §2, §3

[6] = test system: OVCAR8 ovarian cancer cells; assay: MTT cytotoxicity assay in OVCAR8 (cisplatin resistant) ovarian cancer cells; type: cell-based, human; conditions: 48 h incubation
Procedure: as §4, §5

[7] = test system: zebrafish (Danio rerio) embryos; assay: Acute toxicity (mortality) in zebrafish embryo; type: in vivo; conditions: 72 hpf embryos, 0.1–10 μM, 48 h, in words
Description: Toxicity is a major challenge for drug development and is the leading cause of drug failure. Consequently, the evaluation of the potential toxicity represents a critical step in the development of new drugs. In this context, the zebrafish embryo represents a notable in vivo vertebrate model for studying the toxic effects of chemical compounds due to the small size, robustness, multiple progenies from a single mating, chemical permeability, easiness of observation and maintenance under laboratory conditions. In addition, the close phylogeny of zebrafish and mammals, with highly conserved signaling pathways, makes this species increasingly used and ideal for performing toxicological studies. Therefore, we evaluated the complexes acute toxicity by measuring mortality of 72 h post-fertilization (hpf) zebrafish embryos when incubated with increasing concentrations of the Au(III) complexes for 48 h.
To test the toxicological effect of the gold (III) complexes, zebrafish (Danio rerio) embryos at developmental stage of 72 h post-fertilization (hpf) were exposed to different concentrations of the target complexes and mortality was assessed for 48 h of treatment. […]

S. aureus Newman [8] = test system: S. aureus Newman; parameters: method as in PMID 32391537; conditions: complexes starred as Complex 1 / Complex 2; cited from earlier work
E. coli ATCC25922 [9] = test system: E. coli ATCC25922; parameters: method as in PMID 32391537; conditions: complexes starred as Complex 1 / Complex 2; cited from earlier work
C. albicans SC5134 [10] = test system: C. albicans SC5134; parameters: method as in PMID 32391537; conditions: complexes starred as Complex 1 / Complex 2; cited from earlier work
[11] = test system: A2780 ovarian cancer cells; parameters: method as in PMID 32391537; conditions: MTT, starred values, cited from earlier work
C. glabrata CBS138 [12] = test system: C. glabrata CBS138; parameters: method as in PMID 32391537; conditions: complexes starred as Complex 1 / Complex 2; cited from earlier work
P. berghei hepatic stage = assay: In vitro activity against the hepatic stage of P. berghei infection (luciferase, Huh7 cells); type: cell-based, Plasmodium berghei; conditions: hepatic stage, Huh7 cells, 46 hpi
Procedure: as §6

[13] = 24 h incubation, read-out: IC50 A2780, 24 h
[14] = 48 h incubation, read-out: IC50 A2780, 48 h

| Compound | MIC C. glabrata CBS138 (C. glabrata CBS138 [1]) [µg/mL] | IC50 [2, 13] [nM] | IC50 [2, 14] [nM] | MIC E. coli ATCC25922 (E. coli ATCC25922 [3]) [µg/mL] | toxicity seen as lower cell confluency (Huh7 cells) | MIC S. aureus Newman (S. aureus Newman [4]) [µg/mL] | MIC C. albicans SC5134 (C. albicans SC5134 [5]) [µg/mL] | IC50 [6] [nM] | toxicity in zebrafish embryo [7] | MIC S. aureus Newman (S. aureus Newman [8]) [µg/mL] | MIC E. coli ATCC25922 (E. coli ATCC25922 [9]) [µg/mL] | MIC C. albicans SC5134 (C. albicans SC5134 [10]) [µg/mL] | IC50 [11, 13] [nM] | IC50 [11, 14] [nM] | MIC C. glabrata CBS138 (C. glabrata CBS138 [12]) [µg/mL] | IC50 (P. berghei hepatic stage) [nM] |
| --- | --- | --- | --- | --- | --- | --- | --- | --- | --- | --- | --- | --- | --- | --- | --- | --- |
| CCn1c2c(sc1=O)[S][Au-]1([S]c3sc(=O)n(CC)c3[S]1)[S]2.c1ccc([P+](c2ccccc2)(c2ccccc2)c2ccccc2)cc1 [[P][AuSEt(=O)]] | >62.5 | 860 ± 110 | 310 ± 100 | >125 | some degree of toxicity | >125 | >62.5 | 1160 ± 210 | more toxic than [P][AuSEt(=S)] |  |  |  |  |  |  |  |
| CCCn1c2c(sc1=S)[S][Au-]1([S]c3sc(=S)n(CCC)c3[S]1)[S]2.c1ccc([P+](c2ccccc2)(c2ccccc2)c2ccccc2)cc1 [[P][AuSPr(=S)]] |  |  |  |  |  |  |  |  |  | >125 | >125 | >125 | 4600 ± 1150 | 520 ± 230 | >125 |  |
| CCCn1c2c(sc1=[Se])[S][Au-]1([S]c3sc(=[Se])n(CCC)c3[S]1)[S]2.c1ccc([P+](c2ccccc2)(c2ccccc2)c2ccccc2)cc1 [[P][AuSPr(=Se)]] | >62.5 | 620 ± 190 | 550 ± 410 | >125 | some degree of toxicity | >125 | 62.5 | 800 ± 180 |  |  |  |  |  |  |  | 643.9 ± 1.34 |
| CCn1c2c(sc1=[Se])[Se][Au-]1([Se]c3sc(=[Se])n(CC)c3[Se]1)[Se]2.c1ccc([P+](c2ccccc2)(c2ccccc2)c2ccccc2)cc1 [[P][AuSeEt(=Se)]] | >62.5 | 3960 ± 2210 | 640 ± 190 | >125 |  | >125 | >62.5 | 2420 ± 1520 |  |  |  |  |  |  |  | 518 ± 246 |
| CCCn1c2c(sc1=S)[Se][Au-]1([Se]c3sc(=S)n(CCC)c3[Se]1)[Se]2.c1ccc([P+](c2ccccc2)(c2ccccc2)c2ccccc2)cc1 [[P][AuSePr(=S)]] | >125 | 910 ± 400 | 290 ± 100 | >250 |  | >250 | >125 | 1570 ± 430 |  |  |  |  |  |  |  | 544 ± 19.4 |
